Results reported in patent US20090130194A1, “Methods of Treating Cancer with High Potency Lipid-Based Platinum Compound Formulations Administered Intravenously” (Transave, Inc., priority 2005, published 2009).

What was measured:
[1] = Pharmacokinetics and organ distribution of ip and iv injected L-CDDP and CDDP (platinum by ICP-MS); type: in vivo, ICR mice; details: 8 mg/kg
Experimental: Pharmacokinetics and organ distribution in animals of ip and iv injected lipid-complexed cisplatin and cisplatin (Part II). Sixty ICR mice (female, 7 weeks old) were divided into 4 groups. They received intraperitoneal or intravenous injection of L-CDDP or CDDP, separately. The dose was 12 mg/kg for ip L-CDDP and 8 mg/kg for the rest of treatment groups. At each designed time point, three to four mice were anaesthetized with 70 mg/kg of Nembutal ip (e.g., 3, 20, and 40 min, and 2, 8, 24, 48, and 72 h). […] Organs including liver, lung, and spleen were resected from the mice. The organ samples were homogenized in distilled water (4-fold of the sample weight) and digested with nitric acid. The platinum concentration in each sample was measured by Inductively Coupled Plasma-Mass Spectrometer (ICP-MS). The pharmacokinetics profiles (FIGS. 4, 5, and 6, all Y-axes are concentration of μg platinum in one gram of tissue or fluid per mg of injected dose) and parameters (Table 2) of each formulation were simulated and calculated.

[2] = Nephrotoxicity: blood urea nitrogen (BUN); type: in vivo; details: MTD
Text: Nephrotoxicity. ICR mice, 7 weeks old, female, were divided into 4 groups with 3 to 4 mice in each. […] Four days after the injection, the mice were euthanized with Nembutal ip. The blood was drawn and the serum was isolated. The blood urea nitrogen (BUN) was quantitatively measured with a calorimetric method at Antech Diagnostics. Organs including duodenum, heart, kidney, liver, lung, and spleen were resected from the mice and fixed with 10% buffered Formalin. The fixed tissues were processed with standard procedure for H and E staining. A pathology expert Dr. Carman Tornos at the Memorial Sloan-Kettering Cancer Center examined kidney tissues and gave a toxicity grade to each kidney tissue sample. The grading was based on the general pathology guidelines for kidney toxicity.

N.N.[Cl][Pt][Cl] [CDDP, cis diamminedichloroplatinum]
AUC, Liver [1]: 19.96 µg·h/g/µg
AUC, Lung [1]: 5.58 µg·h/g/µg
AUC, Spleen [1]: 8.11 µg·h/g/µg
Cmax, Liver [1]: 0.74 µg/g/µg
Cmax, Lung [1]: 0.28 µg/g/µg
BUN level change (in words) ([2]; either route): increase
BUN level increase compared with normal controls ([2]; ip, 4 days after injection, p=0.04): 2.1 fold
